From ChEMBL document CHEMBL1201862, “PubChem BioAssay data set” (2004)
Several values for one entry are separate records, joined by “and”; a condition that tells them apart may be missing. Equal entries are not always repeated.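 48-hour exposure; five concentrations; linearly interpolated endpoints. GI50 is the concentration that inhibits growth by half.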 Activity calls are given as the source filed them. Rule as the data show it: active = GI50 up to about 1.1 µM and inactive = higher.

Legend:
Assay in all cases: growth of human tumour cells (NCI), 48 h
HCT-116 = system: HCT-116
RXF 631 = system: RXF 631
HOP-18 = system: HOP-18
SF-539 = system: SF-539
TK-10 = system: TK-10
786-0 = system: 786-0
HOP-92 = system: HOP-92
NCI-H460 = system: NCI-H460
KM-20L2 = system: KM-20L2
SNB-75 = system: SNB-75
SK-MEL-5 = system: SK-MEL-5
IGROV-1 = system: IGROV-1
SK-MEL-28 = system: SK-MEL-28
KM12 = system: KM12
UACC-257 = system: UACC-257
OVCAR-8 = system: OVCAR-8
OVCAR-5 = system: OVCAR-5
XF498 = system: XF498
SNB-78 = system: SNB-78
UACC-62 = system: UACC-62
RPMI-8226 = system: RPMI-8226
A549 = system: A549
K562 = system: K562
M19-MEL = system: M19-MEL
HOP-62 = system: HOP-62
NCI-H226 = system: NCI-H226
SF-295 = system: SF-295
CCRF-CEM = system: CCRF-CEM
HCT-15 = system: HCT-15
HT-29 = system: HT-29
LOX IMVI = system: LOX IMVI
OVCAR-4 = system: OVCAR-4
U-251 = system: U-251
Malme-3M = system: Malme-3M
A498 = system: A498
SNB-19 = system: SNB-19
SK-OV-3 = system: SK-OV-3
SN12C = system: SN12C
ACHN = system: ACHN
M14 = system: M14
OVCAR-3 = system: OVCAR-3
NCI-H23 = system: NCI-H23
DLD-1 = system: DLD-1
EKVX = system: EKVX
DMS-114 = system: DMS-114
SR = system: SR
MOLT-4 = system: MOLT-4
CAKI-1 = system: CAKI-1
NCI-H522 = system: NCI-H522
HL-60 = system: HL-60
SW-620 = system: SW-620
DMS-273 = system: DMS-273
HCC 2998 = system: HCC 2998
SF-268 = system: SF-268
RXF 393 = system: RXF 393
SK-MEL-2 = system: SK-MEL-2
LXFL 529 = system: LXFL 529
UO-31 = system: UO-31
COLO 205 = system: COLO 205
NCI/ADR-RES = system: NCI/ADR-RES
MCF7 = system: MCF7

CC(=O)OCC1OC(n2c(=S)n(-c3ccccc3)c(=S)c3ccccc32)C(OC(C)=O)C(OC(C)=O)C1OC(C)=O (stereo not drawn)
GI50 (HCT-116): > 89.1 µM (inactive) and 57 µM (inactive)
GI50 (RXF 631): > 57.3 µM (inactive) and 71.4 µM (inactive)
GI50 (HOP-18): 6.87 µM (inactive)
GI50 (SF-539): 43.9 µM (inactive) and 48.5 µM (inactive)
GI50 (TK-10): 16.9 µM (inactive)
GI50 (786-0): > 80.9 µM (inactive) and 62.8 µM (inactive)
GI50 (HOP-92): > 37.7 µM (inactive) and 41.1 µM (inactive)

COC(=O)C(=O)C(C(=O)Nc1cccc(C)c1C)C1Sc2ccccc2NC1=O (stereo not drawn)
GI50 (NCI-H460): 13.4 µM (inactive)
GI50 (KM-20L2): 8.67 µM (inactive)
GI50 (HCT-116): 8.22 µM (inactive)
GI50 (SNB-75): 9.84 µM (inactive)
GI50 (SK-MEL-5): 8.11 µM (inactive)
GI50 (IGROV-1): 16.8 µM (inactive)
GI50 (SK-MEL-28): 14.6 µM (inactive)
GI50 (KM12): 7.69 µM (inactive)
GI50 (UACC-257): 16.4 µM (inactive)
GI50 (OVCAR-8): 19.5 µM (inactive)
GI50 (OVCAR-5): > 25 µM (inactive)
GI50 (XF498): > 25 µM (inactive)
GI50 (SNB-78): 21.2 µM (inactive)
GI50 (UACC-62): 8.09 µM (inactive)
GI50 (RPMI-8226): 9.48 µM (inactive)
GI50 (HOP-18): > 25 µM (inactive)
GI50 (A549): 10.9 µM (inactive)
GI50 (K562): 9.79 µM (inactive)
GI50 (M19-MEL): 14.6 µM (inactive)
GI50 (HOP-62): 19.6 µM (inactive)
GI50 (NCI-H226): 16.7 µM (inactive)
GI50 (SF-295): 12.1 µM (inactive)
GI50 (CCRF-CEM): > 25 µM (inactive)
GI50 (HCT-15): 11.4 µM
GI50 (HT-29): 7.8 µM (inactive)
GI50 (SF-539): 12 µM (inactive)
GI50 (LOX IMVI): 13.9 µM (inactive)
GI50 (OVCAR-4): > 25 µM (inactive)
GI50 (U-251): 12.3 µM (inactive)
GI50 (Malme-3M): 6.37 µM (inactive)
GI50 (A498): 11.5 µM (inactive)
GI50 (SNB-19): 21.9 µM (inactive)
GI50 (SK-OV-3): > 25 µM (inactive)
GI50 (SN12C): > 25 µM (inactive)
GI50 (ACHN): > 25 µM (inactive)
GI50 (TK-10): > 25 µM (inactive)
GI50 (M14): 8.55 µM (inactive)
GI50 (OVCAR-3): 20 µM (inactive)
GI50 (NCI-H23): > 25 µM (inactive)
GI50 (DLD-1): 11.2 µM (inactive)
GI50 (EKVX): > 25 µM (inactive)
GI50 (DMS-114): 5.83 µM (inactive)
GI50 (SR): 13.7 µM (inactive)
GI50 (MOLT-4): > 25 µM (inactive)
GI50 (CAKI-1): > 25 µM (inactive)
GI50 (NCI-H522): 15.8 µM (inactive)
GI50 (HL-60): 4.89 µM (inactive)
GI50 (SW-620): 8.55 µM (inactive)
GI50 (DMS-273): 11.8 µM (inactive)
GI50 (HCC 2998): 15.6 µM (inactive)
GI50 (SF-268): 17.6 µM (inactive)
GI50 (RXF 393): 7.55 µM (inactive)
GI50 (SK-MEL-2): 5.75 µM (inactive)
GI50 (LXFL 529): > 25 µM (inactive)
GI50 (UO-31): > 25 µM (inactive)
GI50 (HOP-92): 10.4 µM (inactive)
GI50 (COLO 205): 8.97 µM (inactive)

COc1cc(C2c3cc4c(cc3[C@@H](Nc3cccc([N+](=O)[O-])c3)C3COC(=O)[C@H]23)OCO4)cc(OC)c1O (stereo partly drawn)
GI50 (NCI-H460): 0.02 µM (active)
GI50 (KM-20L2): 3.64 µM (inactive)
GI50 (HCT-116): 1.99 µM (inactive)
GI50 (SNB-75): 4.1 µM (inactive)
GI50 (SK-MEL-5): 1.88 µM (inactive)
GI50 (IGROV-1): 6.65 µM (inactive)
GI50 (SK-MEL-28): 5.36 µM (inactive)
GI50 (KM12): 3.01 µM (inactive)
GI50 (UACC-257): 4.73 µM (inactive)
GI50 (OVCAR-8): 2.51 µM (inactive)
GI50 (OVCAR-5): 2.16 µM (inactive)
GI50 (XF498): 3.13 µM (inactive)
GI50 (SNB-78): 5.66 µM (inactive)
GI50 (UACC-62): 2.52 µM (inactive)
GI50 (RPMI-8226): 3.05 µM (inactive)
GI50 (HOP-18): 3.37 µM (inactive)
GI50 (A549): 0.2 µM (active)
GI50 (K562): 2.94 µM (inactive)
GI50 (M19-MEL): 4.01 µM (inactive)
GI50 (HOP-62): 0.796 µM (active)
GI50 (NCI-H226): 1.85 µM (inactive)
GI50 (SF-295): 1.36 µM (inactive)
GI50 (CCRF-CEM): 0.4 µM (active)
GI50 (HCT-15): 1.39 µM
GI50 (HT-29): 2.6 µM (inactive)
GI50 (SF-539): 1.43 µM (inactive)
GI50 (LOX IMVI): 1.63 µM (inactive)
GI50 (OVCAR-4): 20.2 µM (inactive)
GI50 (U-251): 1.94 µM (inactive)
GI50 (Malme-3M): 2.62 µM (inactive)
GI50 (A498): 1.46 µM (inactive)
GI50 (SNB-19): 2.5 µM (inactive)
GI50 (SK-OV-3): 2.51 µM (inactive)
GI50 (NCI/ADR-RES): 8.07 µM (inactive)
GI50 (SN12C): 2.75 µM (inactive)
GI50 (OVCAR-3): 5.69 µM (inactive)
GI50 (NCI-H23): 1.55 µM (inactive)
GI50 (DLD-1): 1.93 µM (inactive)
GI50 (EKVX): 3.56 µM (inactive)
GI50 (DMS-114): 2.7 µM (inactive)
GI50 (MOLT-4): 0.29 µM (active)
GI50 (CAKI-1): 1.03 µM (active)
GI50 (NCI-H522): 2.83 µM (inactive)
GI50 (HL-60): 1.05 µM (active)
GI50 (SW-620): 2.28 µM (inactive)
GI50 (DMS-273): 0.615 µM (active)
GI50 (HCC 2998): 2.33 µM (inactive)
GI50 (SF-268): 2.91 µM (inactive)
GI50 (RXF 393): 2.21 µM (inactive)
GI50 (SK-MEL-2): 5.4 µM (inactive)
GI50 (MCF7): 0.944 µM (active)
GI50 (UO-31): 2.23 µM (inactive)
GI50 (HOP-92): 2.92 µM (inactive)
GI50 (COLO 205): 1.35 µM (inactive)
